The assay has as its system Mycobacterium avium subsp. paratuberculosis. In words: Ability to act as growth factor for Mycobacterium paratuberculosis at 2.4 uM concentration, expressed as growth index. The format is functional, mycobacteria paratuberculosis.

Take `CCCCC/C=C/C(=O)N(O)CCCNC(=O)CC(O)(CC(=O)NCCCN(O)C(=O)/C=C/CCCCC)C(=O)OC(C)(C)C`: the GI turned out to be 0.69.
Then `COC(=O)[C@H](CCCCN(O)C(=O)/C=C/c1ccccc1)NC(=O)CC(O)(CC(=O)N[C@@H](CCCCN(O)C(=O)/C=C/c1ccccc1)C(=O)OC)C(=O)O`, with 2.5; and `O=C(CC(O)(CC(=O)NCCCN(O)C(=O)/C=C/c1ccccc1)C(=O)O)NCCCN(O)C(=O)/C=C/c1ccccc1`, with 0.76; and `CCCCC/C=C/C(=O)N(O)CCCNC(=O)CC1(O)CC(=O)N(CCCN(O)C(=O)/C=C/CCCCC)C1=O` (centres undefined), with 4.6.
Then `CCCCCCCCCCCCC/C=C/C(=O)N(O)CCCC[C@H](NC(=O)[C@@H]1COC(c2ccccc2O)=N1)C(=O)OC(C(C)C)C(C)C(=O)N[C@H]1CCCCN(O)C1=O` (some centres undefined), with 1; and `CC(C)(C)OC(=O)C(O)(CC(=O)NCCCN(O)C(=O)/C=C/c1ccccc1)CC(=O)NCCCN(O)C(=O)/C=C/c1ccccc1`, with 4.6.
Then `O=C(CC(O)(CC(=O)NCCCCN(O)C(=O)/C=C/c1ccccc1)C(=O)O)NCCCCN(O)C(=O)/C=C/c1ccccc1`, with 1.5.
On to `CCCCC/C=C/C(=O)N(O)CCCNC(=O)CC(O)(CC(=O)NCCCN(O)C(=O)/C=C/CCCCC)C(=O)O`, for which the GI is 1.
Then `CC(=O)N(O)CCCCCNC(=O)CCC(=O)N(O)CCCCCNC(=O)CCC(=O)N(O)CCCCCN` [DEFEROXAMINE], with 0.92.

(Values after ChEMBL document CHEMBL1135988, “Synthesis and biological evaluation of new citrate-based siderophores as potential probes for the mechanism of iron uptake in mycobacteria” (2002).)
